Experimental data taken from publication PMC6349854, “GLUT1 and GLUT3 involvement in anthocyanin gastric transport- Nanobased targeted approach” (Scientific Reports, 2019).

How the values were obtained:
[1] = system: MKN-28 cells; experiment: Transepithelial transport of anthocyanins through MKN-28 gastric barrier (apical to basolateral); assay type: in vitro ADME, human; settings: for paracellular transport efficiency: 4 °C; for paracellular transport efficiency / transport efficiency at 180 minutes: apical pH 5.0, basolateral pH 7.4, anthocyanin 500 µM; for transport efficiency at 180 minutes: 37 °C
Description: (§1) Transepithelial transport experiments were performed using a similar procedure from the one described elsewhere. […] Cells were cultured at 37 °C in an atmosphere of 5% CO2 and the medium was changed every two days.
(§2) After this treatment, media was removed and cells were washed with Hanks’ medium (HBSS), pH 7.4 at the basolateral side and with HBSS pH 5.0 at the apical side. Anthocyanin solution (500 µM) in HBSS pH 5.0 was added to the apical side of the cells and HBSS containing 2% fetal bovine serum free of polyphenols was added to the basolateral compartment. Transepithelial transport was followed as a function of time, at 4 °C and 37 °C. Samples were taken from the basolateral side and replaced by fresh medium. The samples (150 µL) were acidified with HCl 6 M to a final concentration of 1% and frozen at −18 °C until HPLC analysis.

[2] = system: Mv3glc transport through MKN-28 barrier; experiment: Effect of transporter inhibitors on anthocyanin transport through MKN-28 barrier; assay type: cell-based, human
Description: as §1, §2

SMILES | paracellular transport efficiency [1] | transport efficiency at 180 minutes ([1]; 180 min) | other results
COc1cc(-c2[o+]c3cc(O)cc(O)c3cc2O[C@@H]2O[C@H](CO)[C@@H](O)[C@H](O)[C@H]2O)ccc1O [Pn3glc, Peonidin-3-O-glucoside] | below 2% | ~ 10% | 
C=C1[C@@H](C)[C@H]2[C@H](Cc3ccccc3)NC(=O)[C@]23OC(=O)/C=C/[C@H](O)CCC[C@@H](C)C/C=C/[C@H]3[C@@H]1O [cytochalasin B] |  |  | inhibitory effect on anthocyanin transport ([2]; cytochalasin B 50 µM added simultaneously with AuNP@GLUT1 + 3): inhibitory effect was higher
COc1cc(-c2[o+]c3cc(O)cc(O)c3cc2O[C@@H]2O[C@H](CO)[C@@H](O)[C@H](O)[C@H]2O)cc(OC)c1O [Mv3glc, Malvidin-3-O-glucoside] | below 2% | ~ 10% | inhibitory effect on transport when both transporters inhibited simultaneously ([1]; GLUT1 and GLUT3 silenced together (AuNP@GLUT1 + 3), 24 h + 24 h): much more pronounced and additive; relative reduction of transport ([1]; after silencing of GLUT1 or GLUT3 by nanoconjugates 24 h + 24 h, 180 min, versus respective control (AuNP@PEG)): around 25%
CCCN(CCC)S(=O)(=O)c1ccc(C(=O)O)cc1 [Probenecid] |  |  | effect on Mv3glc transport ([2]; inhibitor 50 µM, apical pH 5.0, basolateral pH 7.4): no effect
